Assay results published in article PMC6130628, “Some pharmacokinetic parameters of salvianolic acid A following single-dose oral administration to rats” (Pharmaceutical Biology, 2018).
“Also recorded” adds a separate entry of the source.

What was measured:
[1] = test system: Caco-2 cell monolayer; assay: Bidirectional transport experiments in the Caco-2 cell culture model; type: in vitro ADME
Procedure: Caco-2 cells (passage number 34–36, American Type Culture Collection, Manassas, VA) were cultured at 37 °C in an atmosphere of 5% CO2 and 90% relative humidity in Dulbecco’s modified Eagle’s medium supplemented with 10% fetal bovine serum, 1% penicillin–streptomycin, 1% HEPES, 1% sodium pyruvate and 1% minimal essential medium nonessential amino acids. After harvesting at 90% confluence, the cells were seeded on to 0.4 μm polycarbonate membrane transwell inserts (12 mm diameter) at a density of 1.5 × 10^5 cells/cm^2. The culture media was changed every other day during the first 7 days after seeding and once a day thereafter. Cell monolayers were ready for experiments from 20 to 24 days postseeding.
Experiments in triplicate were performed in HBSS (pH =7.4).To ensure the stability of Sal A in HBSS, VC was applied in this study as stabilizer. The monolayers were washed three times with prewarmed HBSS (37 °C) before use. The integrity of the Caco-2 monolayers was monitored by measuring the transepithelial electrical resistance, and only monolayers with values ≥400 Ω/cm^2 were used. The monolayers were incubated with HBSS at 37 °C for 30 min, and then the incubation medium was aspirated. Afterwards, bidirectional transport experiments were conducted. Sal A solution of appropriate concentrations in HBSS (containing VC 1 0^−4 mol/L) were loaded to the donor compartments and the blank HBSS (containing VC 1 0^−4 mol/L) was added to the receiver compartments. Seven sequential samples (50 μL) were collected at different times (0, 30, 60, 90, 120, 150, 180 min) from the receiver side. The same volume of receiver medium was replaced after each sampling. The collected samples were added into tubes with 40 μL MeOH–H2O (50:50, v/v, containing VC 100 μg/mL). Then, 10 μL of the IS spiking solution (butyl paraben, 1 μg/mL) was added. After centrifugation at 13,400 rpm for 5 min, 20 μL of the supernatant was injected to the LC–MS system.
Influence of the stabilizer on the transport of Sal A has also been tested under the condition of different concentrations of VC. The samples were collected, treated and analyzed according to the same procedure.
The apparent permeability coefficient (Papp) was calculated according to the following equation: Papp=(ΔQ/Δt)/(A×C0) where ΔQ/Δt is the linear appearance rate of the tested compound in the receiver compartments, A is the surface area of the cell monolayer and C0 is the initial concentration of the tested compound in the donor side.

[2] = design: method as in Lai et al. [2011]; conditions: rats, salvianolic acid extract 800 mg/kg oral (Sal A 5.71% of mixture); ref Lai et al. [2011]; cited from earlier work
[3] = Tissue distribution of Sal A in rats; type: in vivo, Sprague-Dawley rats; conditions: single oral dose 5 mg/kg
Procedure: Twenty-four healthy, intact Sprague–Dawley rats (male/female, 1/1, 185–215 g, Certificate No. SCXK 2006-0009) were purchased from Vital River Laboratories (Beijing, China). The rats were maintained in air-conditioned animal quarters with alternating 12 h light/dark cycles at a room temperature of 22 ± 2 °C and a relative humidity of 50 ± 10%. The rodents were given a commercial rat chow and water ad libitum. The experiment started after acclimation to the facilities for 7 days. The animal protocols used in this study followed guidelines set forth by the Ethic Committee of Laboratory Animals of the Affiliated Hospital of Qingdao University (QYFYKYLL 2013-2-4-01).
Rats were fasted overnight (∼12 h) and had free access to water throughout the experimental period. In our study, rats were treated as followed: 18 rats were divided into 3 groups randomly (6 rats/group, male/female =1/1) and were all given a single oral dose of 5 mg/kg. The animals were sacrificed 10 min, 1 and 2 h postdosing and stomach, small intestine, heart, liver, spleen, lung, kidney and brain were harvested for drug analysis. The remaining six rats were given normal saline as control. Tissue samples were frozen and maintained at –80 °C immediately until analysis.
Tissues were homogenized in normal saline (2 mL/g, except 6 mL/g for stomach) using a FLUKO F6/10 for 1–2 min over an ice bath. The aliquots of 200 μL homogenized tissues were used for the LC–MS analysis. The remaining steps were the same as sample preparation in “Pharmacokinetic study in vivo”.

[4] = Excretion of Sal A from rats (feces, urine, bile; UPLC–MS/MS); type: in vivo, Sprague-Dawley rats; conditions: single oral dose 20 mg/kg
Procedure: Twelve healthy, intact Sprague-Dawley rats (male/female, 1/1, 185-215 g, Certificate No. SCXK 2006-0009) were purchased from Vital River Laboratories (Beijing, China). The rats were maintained in air-conditioned animal quarters with alternating 12 h light/dark cycles at a room temperature of 22 ± 2 °C and a relative humidity of 50 ± 10%. The rodents were given a commercial rat chow and water ad libitum. The experiment started after acclimation to the facilities for 7 days. The studies were conducted under protocols approved by the Ethics Committee of Laboratory Animals of the Affiliated Hospital of Qingdao University ([…] 2013-2-4-01). In the urine and feces excretion studies, rats were treated as follows. After acclimation to the facilities for 7 days in metabolism cages and being fasted overnight (∼12 h) with free access to water, six rats (male/female, 1/1) were given a single dose of Sal A at 20 mg/kg orally. Blank feces and urine were got prior to administration. […] These samples were immediately frozen and maintained at -80 °C until analysis. In the bile excretion study, rats were treated as follows. After acclimation to the facilities for 7 days and being fasted overnight (∼12 h) with free access to water, six rats (male/female, 1/1) received a bile duct intubation surgery. An oral dose of 20 mg/kg were given to the postoperative awake rats, and bile samples were collected prior and after the administration (from 0 to 2, 2 to 4, 4 to 6, 6 to 8, 8 to 12 and 12 to 24 h). The samples were immediately frozen and maintained at -80 °C immediately until analysis. After drying, feces were soaked in purified water containing VC 100 μg/mL (5 mL/g) overnight and treated with ultrasonic for 10 min. Homogenate was centrifuged at 13,400 rpm for 10 min. 200 μL of the supernatant was got for the UPLC-MS/MS analysis, along with 200 μL of urine and bile samples. Sample preparation was the same as sample preparation in “Pharmacokinetic study in vivo”.

[5] = design: method as in Pei et al. [2008]; conditions: oral administration at 100 mg/kg; ref Pei et al. [2008]; cited from earlier work

influence of VC concentration on the amount of Sal A transported ([1]; different VC concentrations, p> 0.05): no significant difference
membrane permeability (classification by Papp) ([1]; poorly absorbed: Papp <1 × 10^−6 cm/s): poor membrane permeability
presence in brain homogenate [3]: detected in brain homogenate
time to distribute into tissues [3]: ≤ 10 min
excretion via bile, mean % of the dose ([4]; bile duct intubated rats, 0–24 h): 0.00373%
dose excreted ([4]; both sexes, Sprague-Dawley, rat, feces, bile and urine, rats, read-out: recovery (accumulated excretion through feces, bile and urine), % of administered dose): < 1%
urinary excretion, mean % of the dose ([4]; rats, 0–96 h): 0.00252%
Compound: O=C(/C=C/c1ccc(O)c(O)c1/C=C/c1ccc(O)c(O)c1)O[C@H](Cc1ccc(O)c(O)c1)C(=O)O [Sal A, Salvianolic acid A]
absolute bioavailability of Sal A [2]: 2.5%
tissue with highest concentration ([3]; 10 min, 1 and 2 h, 5 mg/kg): stomach followed by small intestine and liver; also recorded: highest tissue concentration was found in stomach
plasma half-life [5]: 3.29 h
